Measured values taken from patent US12226387B2, “Compounds for use in cancer cachexia” (priority 2018, dated 2025).
Read-outs that look alike come from different tables or passages of the source.

What was measured:
C26 tumour-bearing mice [1] = experiment: Survival experiment in C26 tumour-bearing mice on ketone-ester diet; assay type: in vivo, Male Balb/c mice; conditions: ketone groups (KETrest+KETex) vs control groups, 4.5% ketone ester diet, p<0.01
Procedure: Animal housing and husbandry—Male Balb/c mice were obtained at 11 weeks of age and housed in polycarbonate cages on a 6:00 am to 6:00 pm light cycle under controlled room temperature (21-23° C.) and humidity (40-60%). Mice were individually housed to allow assessment of individual energy intake and physical activity parameters. Cages contained spruce particles (Lignocel® BK 8/15) bedding, and were changed every three weeks. Enrichment was provided by two cotton pellets, which were replaced during cage changing. Mice received one wooden stick to allow correct wearing off of their teeth while on the liquid diets. Solid food was provided in a recess of the metal wire lid at the top of the cage, whilst liquid diets were provided on a daily basis by means of feeding tubes (Bio-Serv™, catalog #14-726-518). Water was provided by a centralized system with a metal dispenser extending into the cage. All procedures were approved by the Animal Ethics Committee of KU Leuven, Belgium (P093/2017). […]
General study protocol and dietary interventions—Mice were individually housed and received ad libitum access to standard chow (Ssniff® R/M-H, Soest, Germany) prior to the start of the study. Food intake was registered and body weight was measured daily for 5 days to assess their normal rate of food intake. […]

C26 tumour-bearing mice [2] = experiment: Food intake and body weight of C26 tumour-bearing mice; assay type: in vivo, Male Balb/c mice; conditions: all experimental groups
Procedure: General study protocol and dietary interventions—Mice were individually housed and received ad libitum access to standard chow (Ssniff® R/M-H, Soest, Germany) prior to the start of the study. Food intake was registered and body weight was measured daily for 5 days to assess their normal rate of food intake. Following this baseline follow-up period, the mice were matched for body weight and food intake where after they were randomly assigned to five experimental groups: i) C26 tumour-bearing mice at rest on control diet (CONrest), ii) C26-bearing mice at rest on ketone diet (KETrest), iii) C26-bearing mice performing voluntary wheel running (WR) on control diet (CONex), iv) C26-bearing mice performing WR on ketone diet (KETex), and v) healthy mice at rest on control diet (WT). Mice were habituated to their experimental diet by a step-wise change of their food supply.
During the first three days, the mice received both their experimental liquid diet (without the addition of ketones) as well as standard chow. From day 3 to 6, mice received only their experimental liquid diets (i.e. 0% KET or CON diet). […]
Body weight, food intake and wheel running parameters—Body weight was measured every 3 days during the food training period. After tumour induction, body weight was measured at 4-day intervals. Food intake and wheel running parameters were measured daily.

[3] = Blood metabolite concentrations (βHB, glucose), 1-hr postprandial; assay type: in vivo, Male Balb/c mice; conditions: at all times
Procedure: Blood metabolite concentrations-Blood parameters were measured 1-hr postprandial, every 3 days during the food habituation period, and every 4 days from the day of tumour induction. Blood βHB and glucose levels were measured using the Glucomen Lx plus-meter (Menarini Diagnostics, Firenze, Italy) with Lx β-ketone or Lx glucose strips, respectively. The detection limits for p-hydroxybutyrate were 0.1 to 8.0 millimolar (mM). Blood lactate concentrations were assessed using the Lactate-[…] monitoring system (Arkray, Kyoto, Japan). Measurements were performed according to the manufacturer's instructions.

C26 tumour-bearing mice [4] = experiment: Voluntary wheel running activity; assay type: in vivo, Male Balb/c mice; conditions: KETex, wheel running on ketone ester diet, mean±SEM
Procedure: Tumour induction and exercise intervention—On day 12, tumour-xenografts were induced by interscapular injection of 5×10^5 murine colon carcinoma C26 cells dissolved in 100 μl of phosphate-buffered saline (PBS). C26 cell line was cultured in DMEM (Thermo Fisher Scientific, 41965-062) supplemented with 10% foetal bovine serum (FBS), 1% glutamine (Sigma G7513) and 1% penicillin and streptomycin. WT mice were injected with an identical volume of PBS. Twenty four hours before tumour inoculation, WR mice (CONex and KETex) received a running wheel to induce voluntary exercise, as previously reported in Coletti D et al;. Substrains of inbred mice differ in their physical activity as a behavior. Sci World J 2013: 1-7, 2013. Each wheel was supplied with a commercial cycling computer (2Cycle, 81488) to record physical activity parameters (i.e. running time, distance, and speed). Body weight, food intake and wheel running parameters—Body weight was measured every 3 days during the food training period. After tumour induction, body weight was measured at 4-day intervals. Food intake and wheel running parameters were measured daily. Statistical analysis—Data are presented as mean±SEM. […] Mice from the WT groups were not included in the 2-way ANOVA model, but were added as a reference. Differences in wheel running activity were assessed using an unpaired t-test. […]

[5] = test system: murine colon carcinoma C26 cells; experiment: Tumour weights, C26 tumour-xenografts; assay type: in vivo, Male Balb/c mice; conditions: 16 days after C26 inoculation, KET mice, p<0.05 vs CON, mean±SEM
Procedure: Tumour induction and exercise intervention—On day 12, tumour-xenografts were induced by interscapular injection of 5×10^5 murine colon carcinoma C26 cells dissolved in 100 μl of phosphate-buffered saline (PBS). C26 cell line was cultured in DMEM (Thermo Fisher Scientific, 41965-062) supplemented with 10% foetal bovine serum (FBS), 1% glutamine (Sigma G7513) and 1% penicillin and streptomycin. WT mice were injected with an identical volume of PBS. Twenty four hours before tumour inoculation, WR mice (CONex and KETex) received a running wheel to induce voluntary exercise, as previously reported in Coletti D et al;. Substrains of inbred mice differ in their physical activity as a behavior. Sci World J 2013: 1-7, 2013. Each wheel was supplied with a commercial cycling computer (2Cycle, 81488) to record physical activity parameters (i.e. running time, distance, and speed). Behavioural testing and tissue collection experiment—In a second experiment, 9 mice were included in each experimental group and used for behavioural testing and tissue collection. Mice were euthanized 16 days following PBS or tumour cells inoculation. Twenty-four hours before sacrifice the running wheels were removed to eliminate potential acute effects of exercise on variables measured.

C26 tumour-bearing mice [6] = experiment: Muscle weights (TA, QUAD, GAS); assay type: in vivo, Male Balb/c mice
Description: Behavioural testing and tissue collection experiment—In a second experiment, 9 mice were included in each experimental group and used for behavioural testing and tissue collection. Mice were euthanized 16 days following PBS or tumour cells inoculation. Twenty-four hours before sacrifice the running wheels were removed to eliminate potential acute effects of exercise on variables measured.

C26 tumour-bearing mice [7] = experiment: Grip strength of forelimbs and hindlimbs; assay type: in vivo, Male Balb/c mice; conditions: day 16, KETrest & KETex vs CONrest & CONex, p<0.05
Procedure: Grip strength—Grip strength of both the forelimbs and the hindlimbs was evaluated, at baseline (day 5) and every 4 days starting at tumour induction, by means of a bar and a grid respectively, connected to an isometric force transducer (BIO-GS3 Grip Strength Test, BIOSEB, Pinellas Park, Florida). Mice were lifted by their tail and positioned to grasp the metal bar or grid, and were pulled horizontally until they could no longer hold the grip. Maximal force (g) was registered during five attempts for both the forelimbs and the hindlimbs. Performance was calculated as the average of the three best attempts. Between attempts the mice were returned to their home cage and given a rest period of 3 min.

M. soleus = experiment: Ex-vivo muscle contractile properties of M. soleus; assay type: in vivo, Male Balb/c mice; conditions: on average, KETrest & KETex vs CONrest & CONex, p<0.05
Procedure: Muscle contractile properties—Ex-vivo muscle contractile properties were assessed as described by Derave W et al; Skeletal muscle properties in a transgenic mouse model for amyotrophic lateral sclerosis: Effects of creatine treatment. Neurobiol Dis 13: 264-272, 2003 and Eijnde B O et al; Effect of muscle creatine content manipulation on contractile properties in mouse muscles. Muscle and Nerve 29: 428-435, 2004.
Mice were anesthetized by an intraperitoneal injection of ketamine-xylazine (10 mg/kg). After dissection of M. soleus and M. extensor digitorum longus (EDL) of both hindlimbs, muscles were mounted vertically on a force transducer (HSE, March-Hugstetten, Germany) and incubated in organ baths containing Krebs-Henseleit solution (118 mM NaCl, 25 mM NaHCO3, 5 mM KCl, 1 mM MgSO4, 1 mM KH2PO4, 2.5 mM CaCl2 and […]). […] Following recovery, resting length (L0) was determined with a micropositioner and an oscilloscope by stimulating the soleus and EDL tetanically for 350 ms at 80 Hz and 120 Hz, respectively, interspersed with 2-min rest intervals. […] Average maximal tension and specific tension (force corrected for muscle cross-sectional area) were calculated for both the twitch and tetanic stimulations. Cross-sectional area was determined by dividing the wet muscle mass by the product of resting muscle length (L0) and the density of mammalian skeletal muscle (1.06 g/cm^3).

[8] = Blood (R)-3-hydroxybutyrate after oral administration of ester
[9] = test system: pancreatic cancer cachexia; conditions: high amounts of ketone salts; cited from earlier work
[10] = in vivo

Molecule: C[C@@H](O)CCOC(=O)C[C@@H](C)O [KET, (R)-3-hydroxybutyl-(R)-3-hydroxybutyrate]
- increase in mean survival time compared to control groups (C26 tumour-bearing mice [1]): +40%
- increase in median survival time compared to control groups (C26 tumour-bearing mice [1]): +17%
- Body weight over time (C26 tumour-bearing mice [2]): similarly decreased
- blood glucose levels compared with CON groups [3]: lower
- Av distance/day (C26 tumour-bearing mice [4]): 19.78 ± 1.36 km
- Av running speed (C26 tumour-bearing mice [4]): 2.94 ± 0.12 km/h
- tumour weights [5]: 204 ± 32 mg
- Tibialis anterior (TA) weight (C26 tumour-bearing mice [6]; KET, p<0.05 vs CON, mean±SEM): 41.6 ± 2.1 mg
- gastrocnemius (GAS) weights between the groups (C26 tumour-bearing mice [6]; mouse, in vivo): similar
- TA weight higher in KET compared with CON (C26 tumour-bearing mice [6]; on average): ~12%
- forelimb grip strength vs control groups (C26 tumour-bearing mice [7]): higher
- hindlimb grip strength vs control groups (C26 tumour-bearing mice [7]): higher
- Peak twitch force of M. soleus higher than in control groups (M. soleus): ~45%
- tetanic force of M. soleus higher than in control groups (M. soleus): ~29%
- level of uptake in the gut ([8]; consumption of a drink): surprisingly high
- circulating levels of (R)-3-hydroxybutyrate in the blood ([8]; in vivo): high
- period of raised (R)-3-hydroxybutyrate concentrations compared with ketone salts ([8]; in vivo): longer period

Molecule: CC(=O)CC(=O)[O-].[Li+] [lithium acetoacetate]
- muscle and body weight loss [9]: inhibition
- tumour growth [9]: Reduced

Molecule: CC(O)CC(=O)[O-].[Na+] (centres unmarked) [sodium hydroxybutyrate]
- muscle and body weight loss [9]: inhibition
- tumour growth [9]: Reduced

Molecule: (R)-3-hydroxybutyrate-glycerol partial ester
- circulating levels of (R)-3-hydroxybutyrate in the blood [10]: high
- level of uptake in the gut [10]: surprisingly high
